From patent US20040038855A1 (priority 1999, published 2004) come the findings set out here.

Assay [1] has as its target T1, human α1B adrenoceptor (Homo sapiens, UniProt P35368).
T1 construct: expressed in transfected cells
T1 sequence (P35368 1-520): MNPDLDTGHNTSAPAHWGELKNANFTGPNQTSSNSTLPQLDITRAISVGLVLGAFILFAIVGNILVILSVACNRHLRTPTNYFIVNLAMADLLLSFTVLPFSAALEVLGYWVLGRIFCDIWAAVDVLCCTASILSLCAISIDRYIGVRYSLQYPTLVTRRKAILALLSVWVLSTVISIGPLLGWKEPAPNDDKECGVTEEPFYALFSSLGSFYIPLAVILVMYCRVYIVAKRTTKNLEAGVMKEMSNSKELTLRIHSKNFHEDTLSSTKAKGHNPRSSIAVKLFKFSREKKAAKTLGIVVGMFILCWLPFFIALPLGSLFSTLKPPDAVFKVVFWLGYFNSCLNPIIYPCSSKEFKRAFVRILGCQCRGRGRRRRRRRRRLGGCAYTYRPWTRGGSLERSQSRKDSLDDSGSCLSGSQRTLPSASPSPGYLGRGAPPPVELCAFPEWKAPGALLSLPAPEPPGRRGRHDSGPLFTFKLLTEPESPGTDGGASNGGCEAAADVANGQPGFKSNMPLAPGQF
Kind of assay: Binding affinity at the human α1B adrenergic receptor. The note with it: Table 3d; read-out: hα1B Ki. The source says: (§1) Other receptors: Cell membranes expressing human dopamine D1, D2, D4 and rat D3 receptors were purchased through BioSignal, Inc. (Montreal, Canada). Binding assays using the histamine H1 receptor; dopamine receptors; and α1A, α1B, and α2 adrenergic receptors may be carried out according to the procedures described in U.S. Pat. No. 5,780,485, the disclosure of which is hereby incorporated by reference in its entirety into this application. Binding assays using the dopamine D5 receptor may be carried out according to the procedures described in U.S. Pat. No. 5,882,855, the disclosure of which is hereby incorporated by reference in its entirety into this application. Binding assays for the human α1D adrenergic receptor may be carried out according to the procedures described in U.S. Pat. No. 6,156,518, the disclosure of which is hereby incorporated by reference in its entirety into this application.

Assay [2] concerns the target T2, human α1D adrenergic receptor (Homo sapiens, UniProt P25100).
T2 construct: expressed in transfected cells
T2 sequence (P25100 1-572): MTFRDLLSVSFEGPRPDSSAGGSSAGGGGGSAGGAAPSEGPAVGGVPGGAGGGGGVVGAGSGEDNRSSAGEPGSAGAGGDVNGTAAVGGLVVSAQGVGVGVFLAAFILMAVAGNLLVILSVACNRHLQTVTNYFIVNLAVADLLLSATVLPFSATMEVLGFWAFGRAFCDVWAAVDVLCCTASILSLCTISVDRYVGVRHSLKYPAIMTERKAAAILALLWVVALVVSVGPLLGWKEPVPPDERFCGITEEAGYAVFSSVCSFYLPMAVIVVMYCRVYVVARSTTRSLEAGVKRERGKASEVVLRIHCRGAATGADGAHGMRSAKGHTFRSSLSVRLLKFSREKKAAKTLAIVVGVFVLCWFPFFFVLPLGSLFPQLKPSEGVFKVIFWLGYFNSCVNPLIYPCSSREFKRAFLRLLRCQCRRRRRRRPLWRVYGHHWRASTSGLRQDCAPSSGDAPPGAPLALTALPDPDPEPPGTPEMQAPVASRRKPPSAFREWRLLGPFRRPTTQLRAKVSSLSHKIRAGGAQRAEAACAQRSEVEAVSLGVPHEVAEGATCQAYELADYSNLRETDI
Kind of assay: Binding affinity at the human α1D adrenergic receptor. The note with it: Table 3d; read-out: hα1D Ki.
Description: as §1

Assay [3] concerns the target T3, human α2A adrenoceptor (Homo sapiens, UniProt P08913).
T3 construct: expressed in transfected cells
T3 sequence (P08913 1-465): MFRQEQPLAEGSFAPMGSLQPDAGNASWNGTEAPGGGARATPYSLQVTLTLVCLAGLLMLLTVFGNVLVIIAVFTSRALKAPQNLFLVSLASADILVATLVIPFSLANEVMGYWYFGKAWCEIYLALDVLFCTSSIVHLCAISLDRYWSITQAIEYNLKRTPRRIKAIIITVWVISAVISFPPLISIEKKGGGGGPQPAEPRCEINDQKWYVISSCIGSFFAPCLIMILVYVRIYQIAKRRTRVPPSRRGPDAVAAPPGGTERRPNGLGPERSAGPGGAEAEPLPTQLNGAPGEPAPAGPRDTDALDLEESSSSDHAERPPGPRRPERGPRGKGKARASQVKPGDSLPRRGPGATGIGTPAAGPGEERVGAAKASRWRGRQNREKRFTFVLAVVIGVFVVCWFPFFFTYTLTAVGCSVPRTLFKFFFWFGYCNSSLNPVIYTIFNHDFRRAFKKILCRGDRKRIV
Briefly: Binding affinity at the human α2A adrenergic receptor.
Description: as §1

In assay [4] the target is T4, human 5HT1A receptor (Homo sapiens, UniProt P08908).
T4 construct: The cDNA corresponding to the 5HT1A receptor open reading frames and variable noncoding 5′ and 3′regions; expressed in transfected cells; host or cells: COS7 cells, transient, DEAE-dextran, vector pCEXV3
T4 sequence (P08908 1-422): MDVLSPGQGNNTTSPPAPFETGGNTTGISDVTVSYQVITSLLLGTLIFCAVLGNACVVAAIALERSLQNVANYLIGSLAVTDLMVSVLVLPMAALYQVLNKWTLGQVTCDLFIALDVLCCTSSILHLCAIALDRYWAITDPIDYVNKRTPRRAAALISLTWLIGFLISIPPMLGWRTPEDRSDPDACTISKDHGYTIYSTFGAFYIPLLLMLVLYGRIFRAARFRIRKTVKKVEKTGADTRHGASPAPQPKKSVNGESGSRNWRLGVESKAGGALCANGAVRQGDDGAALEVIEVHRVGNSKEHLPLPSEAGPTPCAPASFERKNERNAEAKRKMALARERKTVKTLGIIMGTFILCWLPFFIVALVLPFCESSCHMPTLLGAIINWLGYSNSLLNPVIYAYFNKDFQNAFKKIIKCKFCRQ
Kind of assay: Binding affinity at the human 5HT1A receptor (3H8OHDPAT). The note with it: Table 3e; read-out: h5HT1A Ki. On the procedure:
5HT1A Receptor: The cDNA corresponding to the 5HT1A receptor open reading frames and variable noncoding 5′ and 3′regions, was cloned into the eukaryotic expression vector pCEXV3. These constructs were transfected transiently into COS7 cells by the DEAEdextran method (Cullen, 1987), and harvested after 72 hours. Radioligand binding assays were performed as described above for the 5HT2A receptor, except that ^3H8OHDPAT was used as the radioligand and nonspecific binding was determined by the addition of 10 μM mianserin.

Counter-ions that a name gives are not always drawn. Like-named read-outs stand apart in the source and are kept apart here.

For `COCC1=C(C(=O)OC)[C@H](c2ccc(F)c(F)c2)N(C(=O)NCCCN2CCC(c3cccc(NC(C)=O)c3)CC2)C(=O)N1` [Example 10, (+)-1,2,3,6-TETRAHYDRO-1-{N-[4-(3,-ACETAMIDO)-PHENYLPIPERIDIN-1-YL]PROPYL}CARBOXAMIDO-4-METHOXYMETHYL-6-(3,4-DIFLUORO-PHENYL)-2-OXOPYRIMIDINE-5-CARBOXYLIC ACID METHYL ESTER], the Ki (in general, the dissociation constant of the complex between target and ligand, obtained from inhibition or displacement) is 11300 nM in assay [1] and 12300 nM in assay [2].
For `COCC1=C(C(=O)OC)C(c2ccc(F)c(F)c2)N(C(=O)NCCCN2CCC(c3cccc(NC(C)=O)c3)CC2)C(=O)N1` (single isomer, unassigned; (-)) [Example 1, (−)-1,2,3,6-TETRAHYDRO-1-{N-[4-(3,-ACETAMIDO)-PHENYLPIPERIDIN-1-YL]PROPYL}CARBOXAMIDO-4-METHOXYMETHYL-6-(3,4-DIFLUORO-PHENYL)-2-OXOPYRIMIDINE-5-CARBOXYLIC ACID METHYL ESTER] the same measures were 9030 nM and 1310 nM.
With `COC(=O)C1=C(C)NC(=O)N(C(=O)NCCCN2CCC3(CC2)OCc2ccccc23)C1c1ccc2nonc2c1` (single isomer, unassigned) [Example 18, HYDROCHLORIDE], the Ki worked out at 57 nM in assay [3], 1240 nM in assay [4], 418 nM in assay [1] and 612 nM in assay [2].
For `COC(=O)C1=C(C)NC(=O)N(C(=O)NCCCN2CCC3(CC2)OCc2ccccc23)C1c1ccc(F)c(F)c1` (stereo not shown) [Example 20, 4-(3,4-DIFLUORPHENYL)-6-METHYL-2-OXO-3-{[3-(4-SPIRO[ISOBENZOFURAN-1(3H),4′-PIPERIDINE]PROPYL}-1,2,3,4-TETRAHYDROPYRIMIDINE-5-CARBOXYLIC ACID METHYL ESTER] the same measures were 99 nM, 2190 nM, 407 nM and 207 nM.
Consider “2-(3,4-DIFLUOROPHENYL)4,5-DIHYDROIMIDAZOLE-1-CARBOXYLIC ACID {3-[4-PHENYL-4-(4-BROMO-5-METHYLTHIOPNEN-2-YL)]-PROPYL}-AMIDE [Example 19]”, for which the Ki worked out at 285 nM in assay [3] (Table 3d, read-out: hα2A Ki); 7940 nM in assay [4]; 104 nM in assay [1]; 517 nM in assay [2].
